Assay results: US20230107642A1 (Erasca, Inc., priority 2020, published 2023)

The compounds below were run against T1, K-Ras G12C (Homo sapiens, UniProt P01116, G12C) (assay: CAF assay (% CAF; method in Example 7, not in this part)). Conditions: 10 uM compound, 1 h incubation.
T1 construct: This protein contained 188 amino acids in total, including an N-terminal 6-Histidine tag; made in house; host or cells: E. coli BL21
Format: binding

% CAF @ 10 uM, 1h	Compound
63.3%	C=CC(=O)N1CCN(c2nc(=O)n3c4c(c(-c5cc(Cl)c(F)cc5F)c(Cl)cc24)SC[C@@H]3CN2CCn3c(nnc3C(F)(F)F)C2)[C@@H](C)C1 [Example 447, (3S)-7-((S)-4-acryloyl-2-methylpiperazin-1-yl)-9-chloro-10-(5-chloro-2,4-difluorophenyl)-3-((3-(trifluoromethyl)-5,6-dihydro-[1,2,4]triazolo[4,3-a]pyrazin-7(8H)-yl)methyl)-2H-[1,4]thiazino[2,3,4-ij]quinazolin-5(3H)-one]
77.9%	C=CC(=O)N1C[C@H](C)N(c2nc(=O)n3c4c(c(-c5cc(F)c(F)cc5F)c(Cl)cc24)SC[C@@H]3CN2CCC3(CC2)COC3)C[C@H]1C (atropisomer, axis not shown) [Example 484, (3S,10S)-3-((2-oxa-7-azaspiro[3.5]nonan-7-yl)methyl)-7-((2S,5R)-4-acryloyl-2,5-dimethylpiperazin-1-yl)-9-chloro-10-(2,4,5-trifluorophenyl)-2,3-dihydro-5H-[1,4]thiazino[2,3,4-ij]quinazolin-5-one]
80.2%	C=CC(=O)N1CCN(c2nc(=O)n3c4c(c(-c5ccc(F)cc5F)c(C(F)(F)F)cc24)SC[C@@H]3COCOC)[C@@H](C)C1 (atropisomer, axis not shown) [Example 549, (3S,10S)-7-((S)-4-acryloyl-2-methylpiperazin-1-yl)-10-(2,4-difluorophenyl)-3-((methoxymethoxy)methyl)-9-(trifluoromethyl)-2H-[1,4]thiazino[2,3,4-ij]quinazolin-5(3H)-one]

These compounds were tested against T2, Cys12 of the KRAS 4B G12C protein (Homo sapiens, UniProt P01116, G12C) (assay: In vitro covalent adduct formation (CAF) assay, LC-MS intact mass). Conditions: 10 uM compound, 60 min.
T2 construct: This protein contained 188 amino acids in total, including an N-terminal 6-Histidine tag; made in house; host or cells: E. coli BL21
Format: binding
Method: This Example provides a protocol for assessing covalent adduct formation (CAF) between the compounds of the present application and KRAS.
In vitro covalent adduct formation assay: Covalent adduct formation (CAF) reactions between Cys12 of the KRAS 4B G12C protein and some of the compounds of Tables 1 to 4 were measured in vitro using liquid chromatography-mass spectrometry (LC-MS).
Recombinant Human KRAS 4B protein containing the G12C mutation was used in compound screening experiments. This protein contained 188 amino acids in total, including an N-terminal 6-Histidine tag, followed by a Tobacco Etch Virus (TEV) tag, followed by residues 1-169 of the native KRAS 4B sequence. The exact mass of the protein was 21,310 Da as determined by mass spectrometry. The full amino acid sequence is shown below: […]
The recombinant protein was expressed in E. coli BL21 cells and purified using affinity chromatography via a Ni-NTA column. Protein stocks were nucleotide-exchanged to >95% GDP, concentrated to 4 mg/mL, and stored at −80° C. in storage buffer (50 mM HEPES pH 7.4, 50 mM NaCl, 5 mM MgCl2, 1 mM DTT). Pure KRAS 4B G12C protein was diluted to a concentration of 5 μM in Tris Buffered Saline, pH 7.4. The compounds were dissolved in DMSO and added to the diluted protein to make a 10 μM concentration. The total DMSO concentration in the reaction was 4%. The reaction was mixed by pipetting and incubated at 22° C. for one hour. Aliquots of the reaction were taken over time and diluted 2:1 in 0.1% formic acid. The intact mass of the protein samples was measured by LC-MS using a QExactive+ mass spectrometer (Thermo Scientific). An amount of 500 ng total protein was injected onto a C8 reverse phase column, eluted with a seven-minute gradient of 30%-90% acetonitrile/0.1% formic acid, and analyzed for intact mass by the mass spectrometer. Adducts identified were confirmed to be within 1 Dalton of the expected mass, and the relative ratios of free:adduct protein were used to quantify the percentage of protein bound by the compound. CAF reactions were run in duplicate, with a typical variability of ±5%.

Compound	% CAF 10 uM @ 60 min
C=CC(=O)N1C[C@H](C)N(c2nc(=O)n3c4c(c(-c5ccc(F)cc5)c(C(F)(F)F)cc24)SC[C@@H]3COCOC)C[C@H]1C [Example 1328, (S)-7-((2S,5R)-4-acryloyl-2,5-dimethylpiperazin-1-yl)-10-(4-fluorophenyl)-3-((methoxymethoxy)methyl)-9-(trifluoromethyl)-2,3-dihydro-5H-[1,4]thiazino[2,3,4-ij]quinazolin-5-one]	93.8%
C=CC(=O)N1[C@H](C)CN(c2nc(=O)n3c4c(c(-c5ccc(F)cc5F)c(C(F)(F)F)cc24)SC[C@@H]3COCC)C[C@@H]1C [Example 1414, (3S)-7-((3S,5R)-4-acryloyl-3,5-dimethylpiperazin-1-yl)-10-(2,4-difluorophenyl)-3-(ethoxymethyl)-9-(trifluoromethyl)-2,3-dihydro-5H-[1,4]thiazino[2,3,4-ij]quinazolin-5-one]	91.8%

Continued, values first:

% CAF 10 uM @ 60 min	Compound
69.2%	C=CC(=O)N1C[C@H](C)N(c2nc(=O)n3c4c(c(-c5cc(C=O)c(F)cc5F)c(C(F)(F)F)cc24)SCC2(COC2)C3)C[C@H]1C [Example 1425, 5-(8′-((2S,5R)-4-acryloyl-2,5-dimethylpiperazin-1-yl)-6′-oxo-10′-(trifluoromethyl)-2′H,4′H,6′H-spiro[oxetane-3,3′-[1,4]thiazepino[2,3,4-ij]quinazolin]-11′-yl)-2,4-difluorobenzaldehyde]
84%	C=CC(=O)N1C[C@H](C)N(c2nc(=O)n3c4c(c(-c5cc(Cl)c(F)cc5F)c(C(F)(F)F)cc24)SCC2(CCOCC2)C3)C[C@H]1C [Example 1435, 8′-((2S,5R)-4-acryloyl-2,5-dimethylpiperazin-1-yl)-11′-(5-chloro-2,4-difluorophenyl)-10′-(trifluoromethyl)-2,3,5,6-tetrahydro-2′H,4′H,6′H-spiro[pyran-4,3′-[1,4]thiazepino[2,3,4-ij]quinazolin]-6′-one]
92%	C=CC(=O)N1C[C@H](C)N(c2nc(=O)n3c4c(c(-c5cc(O)c(F)cc5F)c(C(F)(F)F)cc24)SCC2(COC2)C3)C[C@H]1C [Example 1454, 8′-((2S,5R)-4-acryloyl-2,5-dimethylpiperazin-1-yl)-11′-(2,4-difluoro-5-hydroxyphenyl)-10′-(trifluoromethyl)-2′H,4′H,6′H-spiro[oxetane-3,3′-[1,4]thiazepino[2,3,4-ij]quinazolin]-6′-one]

Same assay, conditions: 10 uM compound, 60 min incubation

% CAF 10 uM @ 60 min	Compound
42.5%	C=CC(=O)N1[C@H](C)CN(c2nc(=O)n3c4c(c(-c5cc(Cl)c(F)cc5F)c(C(F)(F)F)cc24)SC[C@H](N2CCOCC2)C3)C[C@@H]1C (atropisomer, axis not shown) [Example 1115, (3R,11S)-8-((3S,5R)-4-acryloyl-3,5-dimethylpiperazin-1-yl)-11-(5-chloro-2,4-difluorophenyl)-3-morpholino-10-(trifluoromethyl)-3,4-dihydro-2H,6H-[1,4]thiazepino [2,3,4-ij]quinazolin-6-one]
64.9%	C=CC(=O)N1C[C@H](C)N(c2nc(=O)n3c4c(c(-c5cc(Cl)c(F)cc5F)c(C(F)(F)F)cc24)SCC2(COC2)C3)C[C@H]1C (single isomer, unassigned) [Example 1120]

Same assay, conditions: 10 μM compound, after 1 hour

Compound	CAF (% after 1 hour)
C=CC(=O)N1[C@H](C)CN(c2nc(=O)n3c4c(c(-c5cc(Cl)c(F)cc5F)c(C(F)(F)F)cc24)SC[C@@H](OCCN(CC)CC)C3)C[C@@H]1C [Example 1236, (3S)-8-((3S,5R)-4-acryloyl-3,5-dimethylpiperazin-1-yl)-11-(5-chloro-2,4-difluorophenyl)-3-(2-(diethylamino)ethoxy)-10-(trifluoromethyl)-3,4-dihydro-2H,6H-[1,4]thiazepino[2,3,4-ij]quinazolin-6-one]	94%
[2H]C([2H])([2H])O[C@@H]1CSc2c(-c3ccc(F)cc3)c(C(F)(F)F)cc3c(N4C[C@@H](C)N(C(=O)C=C)[C@@H](C)C4)nc(=O)n(c23)C1 [Example 1229, (S)-8-((3S,5R)-4-acryloyl-3,5-dimethylpiperazin-1-yl)-11-(4-fluorophenyl)-3-(methoxy-d3)-10-(trifluoromethyl)-3,4-dihydro-2H,6H-[1,4]thiazepino[2,3,4-ij]quinazolin-6-one]	96%

Now from value to compound:

CAF (% after 1 hour)	Compound
95%	C=CC(=O)N1[C@H](C)CN(c2nc(=O)n3c4c(c(-c5cc(Cl)c(F)cc5F)c(C(F)(F)F)cc24)SCC2(CCC2)C3)C[C@@H]1C [Example 1238, 8′-((3S,5R)-4-acryloyl-3,5-dimethylpiperazin-1-yl)-11′-(5-chloro-2,4-difluorophenyl)-10′-(trifluoromethyl)-2′H,4′H,6′H-spiro[cyclobutane-1,3′-[1,4]thiazepino[2,3,4-ij]quinazolin]-6′-one]
91%	C=CC(=O)N1[C@H](C)CN(c2nc(=O)n3c4c(c(-c5cc(Cl)c(F)cc5F)c(C(F)(F)F)cc24)SCC2(CN(CC(F)(F)F)C2)C3)C[C@@H]1C [Example 1241, 8′-((3S,5R)-4-acryloyl-3,5-dimethylpiperazin-1-yl)-11′-(5-chloro-2,4-difluorophenyl)-1-(2,2,2-trifluoroethyl)-10′-(trifluoromethyl)-2′H,4′H,6′H-spiro[azetidine-3,3′-[1,4]thiazepino[2,3,4-ij]quinazolin]-6′-one]

Same assay, conditions: after 60 min

CAF (% binding after 60 min)	Compound
97%	C=CC(=O)N1[C@H](C)CN(c2nc(=O)n3c4c(c(-c5cc(Cl)c(F)cc5F)c(C(F)(F)F)cc24)SC[C@@H](OCCN(C)C)C3)C[C@@H]1C [Example 1036, (3S)-8-((3S,5R)-4-acryloyl-3,5-dimethylpiperazin-1-yl)-11-(5-chloro-2,4-difluorophenyl)-3-(2-(dimethylamino)ethoxy)-10-(trifluoromethyl)-3,4-dihydro-2H,6H-[1,4]thiazepino[2,3,4-ij]quinazolin-6-one]
